Laboratory results taken from patent publication US20240092772A1, “CRYSTALLINE FORM OF A PIPERAZINYL-THIAZOLE DERIVATIVE” (Idorsia Pharmaceuticals Ltd, priority 2021, published 2024).

What was measured:
[1] = Solid-state stability of crystalline form 3 on isolation/drying (XRPD); format: physicochemical; conditions: isolation by filter centrifugation or drying under reduced pressure; transforms to crystalline form 1
Method: In another experiment 0.04 mL of MeCN is added to 20 mg of COMPOUND (e.g. as obtained from Example 1) in a standard glass HPLC vial, and the suspension in the closed vial is submitted to a temperature variation cycle while being stirred with a magnetic stirring bar. Temperature cycling (repetition of heating 20° C. to 40° C. in 1 hour and cooling 40° C. to 20° C. in 4 hours) and stirring for 25 hours is done in a Polar Bear device (Cambridge reactor design, UK) The obtained solid, when analyzed without drying, is COMPOUND in crystalline form 3.
Form 3 is observed by XRPD when measured still in presence of sufficient MeCN. Isolation by filter centrifugation or isolation and drying under reduced pressure leads to the transformation of crystalline form 3 to crystalline form 1, pointing to the metastable nature of form 3 in absence of sufficient MeCN.

[2] = Gravimetric vapor sorption (GVS), hygroscopicity determination; format: physicochemical; conditions: 25° C.; variation in mass between 40% and 80% RH in first sorption scan; classification in analogy to Ph. Eur. 10.0, section 5.11
Method: Gravimetric Vapor Sorption (GVS) Moisture sorption isotherm was collected on a dynamic vapor sorption analyzer IGASORP HAS-036-080 from Hiden Isochema operated with Isochema HIsorp 2019 software version 4.02.0070. Typically, about 30 mg of a sample is placed in the sample holder and is submitted to a stepwise equilibration at defined relative humidity (RH) setpoints at 25° C. The sample mass is recorded at these setpoints and are used to build the moisture sorption isotherm. The relative humidity setpoints used were 40% to 0% RH followed by 0% to 95% RH in 5% RH intervals. Data shown consist of the moisture sorption isotherm in the range 5% to 90% of the sample submitted to the increasing relative humidity. The variation in mass between 40% relative humidity and 80% relative humidity in the first sorption scan is evaluated for the hygroscopicity determination. The classification is done in analogy to the European Pharmacopeia (Ph. Eur.) 10.0, section 5.11.

Row | Stability of the crystalline form in absence of sufficient MeCN [1] | GVS (hygroscopicity) [2] | SMILES
1 | metastable | – | Cc1ncn(CC(=O)N2CCN(c3sc(C(F)(F)F)nc3-c3cnc(C(F)(F)F)nc3)C[C@H]2CCO)n1 [crystalline form 3, 1-{(R)-2-(2-Hydroxy-ethyl)-4-[2-trifluoromethyl-4-(2-trifluoromethyl-pyrimidin-5-yl)-thiazol-5-yl]-piperazin-1-yl}-2-(3-methyl-[1,2,4]triazol-1-yl)-ethanone]
2 | – | Not hygroscopic | Cc1ncn(CC(=O)N2CCN(c3sc(C(F)(F)F)nc3-c3cnc(C(F)(F)F)nc3)C[C@H]2CCO)n1 [COMPOUND in crystalline form 1, 1-{(R)-2-(2-Hydroxy-ethyl)-4-[2-trifluoromethyl-4-(2-trifluoromethyl-pyrimidin-5-yl)-thiazol-5-yl]-piperazin-1-yl}-2-(3-methyl-[1,2,4]triazol-1-yl)-ethanone]
